Test results reported in patent publication US20140341916A1, “THERAPEUTIC COMBINATIONS AND METHODS OF TREATING MELANOMA” (Genentech, Inc., priority 2011, published 2014).

System: A2058 melanoma xenograft
Test: In vivo efficacy, subcutaneous melanoma xenograft, tumor volume / % TGI
Parameters: species or system mice
Settings: for % TGI Single Agent BRAFi vs. control: A2058
Procedure: Next, efficacy studies were performed using the melanoma cells lines in the xenografts mouse models described above. All studies were conducted in accordance with the Guide for the Care and Use of Laboratory Animals (Ref: Institute of Laboratory Animal Resources (NIH publication no. 85-23), Washington, D.C.: National Academies Press; 1996). 10- to 14-week-old female CRL Nu/Nu or NCr nude mice from Charles River Laboratories were inoculated subcutaneously in the dorsal right flank with either 5×10^6 UACC-257X2.2 cells in HBSS with Matrigel or 5×10^6 A2058 cells in HBSS with Matrigel. When tumor volumes reached approximately 200 mm^3 (day 0), animals were randomized into groups of 10 each.
For single agent efficacy studies, the anti-ETBR ADC candidate Hu5E9v1-ADC was administered as a single intravenous (IV) injection on day 0 at 1 mpk, 3 mpk, or 6 mpk (mg/kg). A control ADC antibody and vehicle control were also administered. Average tumor volumes with standard deviations were determined from 10 animals per group. Tumor volumes were measured twice per week until study end.
The average tumor volumes were determined from 10 animals per group. Tumor volumes were measured twice per week until study end. Tumor volumes were measured in two dimensions (length and width) using UltraCal IV calipers (Model 54 10 111, Fred V. Fowler Company; Newton, Mass.). The following formula was used with Excel, version 12.2.8 (Microsoft; Redmond, Wash.) to calculate tumor volume: Tumor Volume (mm3)=[…]
To analyze the repeated measurement of tumor volumes from the same animals over time, a mixed-modeling Linear Mixed Effects (LME) approach was used (Pinheiro et al. 2009). This approach can address both repeated measurements and a modest drop-out rate due to non-treatment-related termination of animals prior to study end. Cubic regression splines were used to fit a non-linear profile to the time courses of log 2 tumor volume at each dose level. These non-linear profiles were then related to dose within the mixed model. Tumor growth inhibition (TGI) as a percentage of vehicle was calculated as percent area under the fitted curve (AUC) per day in relation to the vehicle, using the following formula:
Using this formula, a TGI value of 100% indicates tumor stasis, of >1% but <100% indicates tumor growth delay, and of >100% indicates tumor regression. To get uncertainty intervals (UIs) for % TGI, the fitted curve and the fitted covariance matrix were used to generate a random sample as an approximation to the distribution of % TGI. The random sample is composed of 1000 simulated realizations of the fitted-mixed model, where the % TGI has been recalculated for each realization. Here, in the reported UI is the value for which 95% of the time, the recalculated values of % TGI will fall in this region given the fitted model. The 2.5 and 97.5 percentiles of the simulated distribution were used as the […] UIs.
Tumors were grown to an average size of approximately 200 mm^3, whereupon animals were randomized into groups of 10 each. […] A single dose of Hu5E9v1-ADC at either 3 mpk or 6 mpk or control, a histidine buffer #8, was administered intraveneously into the tail vein on day 1 (after three doses of RG7204).
To do this, the in vivo efficacy for various combinations of Hu5E9v1-ADC and MEKi-623 and/or MEKi-973 were evaluated against A2058 and SK-MEL-23 and IPC-298 melanoma in vivo models, performed as described above in Example 4. An appropriate methylcellulose tween vehicle control (0.5% methylcellulose, 0.2% Tween-80 (MCT) or MEK inhibitor at doses of 1 mpk, 3 mpk or 7.5 mpk were administered orally once a day×21 days beginning on study Day 0. A single 3 mpk or 6 mpk dose of Hu5E9v1-ADC or control, a histidine buffer #8, was administered intraveneously (after two doses of a MEK inhibitor) via tail vein at study Day 1.

SMILES: CCCS(=O)(=O)Nc1ccc(F)c(C(=O)c2c[nH]c3ncc(-c4ccc(Cl)cc4)cc23)c1F [RG7204, propane-1-sulfonic acid {3-[5-(4-chlorophenyl)-1H-pyrrolo[2,3-b]pyridine-3-carbonyl]-2,4-difluoro-phenyl}-amide]
- single agent efficacy (10 mg/kg RG7204 alone, orally twice a day 21 days): did not show single agent efficacy
- % TGI Single Agent BRAFi vs. control (BRAFi Qdx21 10 mg/kg): 13%
- % TGI Single Agent BRAFi vs. control (BRAFi Qdx21 30 mg/kg): 38%
